Experiments:
[1] = test system: 5′-AA-3′ (DNA, single strand, 5'-phosphate (discussed as a 5' phosphate group in the modelled structure)) AA; assay: Raman spectroscopy of dried mixture (532 nm); settings: no added salt stated; water, dried residue; spermine and dinucleotide at 2:1 molar excess, incubated overnight
[2] = test system: 5′-AA-3′ (DNA, single strand, 5'-phosphate (discussed as a 5' phosphate group in the modelled structure)) AA; assay: SERS adsorption isotherm, Hill-Langmuir fit; settings: no added salt stated; immobilised compound, apparent; dinucleotide adsorption on spermine-capped gold-silver nanostars; 20 °C; spermine 6.7×10^-5 M; Hill n 1.5

NCCCNCCCCNCCCN
binding [1]: yes
K d [2]: (6.2 ± 0.7) 10^–7 M
